Structures are written as SMILES.

The assay addresses PIM (PIM-1, PIM-2, and/or PIM-3). Put plainly: PIM-1, PIM-2 and PIM-3 inhibition, biochemical chemiluminescence assays (Kinase Glo, IC50 determination). The note with it: Table 1 activity class; PIM refers to PIM-1, PIM-2, and/or PIM-3; read-out: PIM IC50 (Activity B). The method, then:
(§1) The IC50 evaluation of compounds against the PIM-1 oncogene was performed in a Chemiluminesence assay utilizing a Greiner 384-well white medium binding white plate format. […] Following an incubation period of 120 minutes at ambient temperature (24-27° C.), 10 μL of Kinase Glo (Promega) was added. The luminescence was measured following a Luminescence Protocol on a Victor plate reader.
as §1, with “PIM-2” for “PIM-1”, “format. […] The assay procedure involves compound dilution followed by addition of 3 nM PIM-2 to the designated well plates and subsequent pre-incubation of the compounds with the enzyme for 30 minutes at ambient temperature (24-27° C.).” for “format.”
The IC50 evaluation of compounds against the PIM-3 Oncogene was performed in a Chemiluminesence assay utilizing a Greiner 384-well white medium binding white plate format. […] Following an incubation period of 120 minutes at ambient temperature (24-27° C.), 10 μL of Kinase Glo (Promega) was added. The luminescence was measured following a Luminescence Protocol on a Victor plate reader.
A word on the IC50: it is the point on the concentration scale where inhibition reaches its midpoint. Regarding `O=c1[nH]c(CNC2CCNCC2)nc2c1oc1ccc(Br)cc12` [Compound 8, 8-bromo-2-[(piperidin-4-ylamino)methyl][1]benzofuro[3,2-d]pyrimidin-4(3H)-one], the IC50 is below 10 µM.

Regarding `CN(C)CCCNC(=O)[C@@H]1CCCN1Cc1nc2c(oc3ccc(Br)cc32)c(=O)[nH]1` [Compound 20, 1-[(8-bromo-4-oxo-3,4-dihydro[1]benzofuro[3,2-d]pyrimidin-2-yl)methyl]-N-[3-(dimethylamino)propyl]prolinamide], the IC50 was below 10 µM.

Take `O=c1[nH]c(CNc2ccc(F)cc2)nc2c1oc1ccc(Br)cc12` [Compound 22, 8-bromo-2-{[(4-fluorophenyl)amino]methyl}[1]benzofuro[3,2-d]pyrimidin-4(3H)-one]: the IC50 was below 10 µM.

In the case of `CCN(CC)CC(=O)N1CCN(Cc2nc3c(oc4ccc(Br)cc43)c(=O)[nH]2)CC1` [Compound 26, 8-bromo-2-{[4-(N,N-diethylglycyl)piperazin-1-yl]methyl}[1]benzofuro[3,2-d]pyrimidin-4(3H)-one], the IC50 was below 10 µM.

Consider `COC(=O)c1ccc(-c2nc3c(oc4ccccc43)c(=O)[nH]2)cc1` [Compound 53, methyl 4-(4-oxo-3,4-dihydro[1]benzofuro[3,2-d]pyrimidin-2-yl)benzoate], for which the IC50 is below 10 µM.

Consider `Cc1cc(NCC2CCOC2)ccc1-c1nc2c(oc3ccc(Br)cc32)c(=O)[nH]1` (stereo not drawn) [Compound 61, 8-bromo-2-{2-methyl-4-[(tetrahydrofuran-3-ylmethyl)amino]phenyl}[1]benzofuro[3,2-d]pyrimidin-4(3H)-one], for which the IC50 is below 10 µM.

Consider `CN1CCN(c2ccccc2CNCc2nc3c(oc4ccc(Br)cc43)c(=O)[nH]2)CC1` [Compound 74, 8-bromo-2-[({[2-(4-methylpiperazin-1-yl)phenyl]methyl}amino)methyl][1]benzofuro[3,2-d]pyrimidin-4(3H)-one], for which the IC50 was below 10 µM.

Consider `CN(C)c1cccc(NCc2nc3c(oc4ccc(Br)cc43)c(=O)[nH]2)c1` [Compound 76, 8-bromo-2-({[3-(dimethylamino)phenyl]amino}methyl)[1]benzofuro[3,2-d]pyrimidin-4(3H)-one], for which the IC50 is below 10 µM.

Regarding `CN(C)CCN1CCN(Cc2nc3c(oc4ccc(Br)cc43)c(=O)[nH]2)CC1` [Compound 81, 8-bromo-2-({4-[2-(dimethylamino)ethyl]piperazin-1-yl}methyl)[1]benzofuro[3,2-d]pyrimidin-4(3H)-one], the IC50 is below 10 µM.

As to `O=c1[nH]c(CN2CCN(CCN3CCOCC3)CC2)nc2c1oc1ccc(Br)cc12` [Compound 82, 8-bromo-2-{[4-(2-morpholin-4-ylethyl)piperazin-1-yl]methyl}[1]benzofuro[3,2-d]pyrimidin-4(3H)-one], the IC50 is below 10 µM.

Consider `CN1CCC(N2CCN(Cc3nc4c(oc5ccc(Br)cc54)c(=O)[nH]3)CC2)CC1` [Compound 84, 8-bromo-2-{[4-(1-methylpiperidin-4-yl)piperazin-1-yl]methyl}[1]benzofuro[3,2-d]pyrimidin-4(3H)-one], for which the IC50 was below 10 µM.

For `O=c1[nH]c(-c2ccc(Cl)cc2)nc2c1oc1ccc(Br)cc12` [Compound 94, 8-Bromo-2-(4-chlorophenyl)[1]benzofuro[3,2-d]pyrimidin-4(3H)-one], the IC50 is below 10 µM.

As to `O=c1[nH]c(-c2ccc(Br)cc2)nc2c1oc1ccc(Br)cc12` [Compound 95, 8-Bromo-2-(4-bromophenyl)[1]benzofuro[3,2-d]pyrimidin-4(3H)-one], the IC50 was below 10 µM.

On to `CNC(=O)c1ccc2oc3c(=O)[nH]c(-c4ccccc4Cl)nc3c2c1` [Compound 97, 2-(2-chlorophenyl)-N-methyl-4-oxo-3,4-dihydrobenzofuro[3,2-d]pyrimidine-8-carboxamide], for which the IC50 was below 10 µM.

For `O=C(COc1cccc(-c2nc3c(oc4ccc(Br)cc43)c(=O)[nH]2)c1)NCC1CC1` [Compound 98, 2-{[3-(8-bromo-4-oxo-3,4-dihydro[1]benzofuro[3,2-d]pyrimidin-2-yl)phenyl]oxy}-N-(cyclopropylmethyl)acetamide], the IC50 is below 10 µM.

For the compound `CN1CCN(C(=O)c2nc3c(oc4ccc(Br)cc43)c(=O)[nH]2)CC1` [Compound 106, 8-Bromo-2-[(4-methylpiperazin-1-yl)carbonyl][1]benzofuro[3,2-d]pyrimidin-4(3H)-one], the IC50 was below 10 µM.

As to `NC1C[C@H]2CC[C@@H](C1)N2Cc1nc2c(oc3ccc(Br)cc32)c(=O)[nH]1` (stereo partly drawn) [Compound 131, 2-{[(1R,5S)-3-Amino-8-azabicyclo[3.2.1]oct-8-yl]methyl}-8-bromo[1]benzofuro[3,2-d]pyrimidin-4(3H)-one], the IC50 is below 10 µM.

`CN1CCN(C(c2nc3c(oc4ccc(Br)cc43)c(=O)[nH]2)c2ccccc2Cl)CC1` (stereo not drawn) [Compound 156, 8-Bromo-2-[(2-chlorophenyl)(4-methylpiperazin-1-yl)methyl][1]benzofuro[3,2-d]pyrimidin-4(3H)-one]: the IC50 was below 10 µM.

Regarding `CN1CCN(C(c2ccccc2)c2nc3c(oc4ccc(Br)cc43)c(=O)[nH]2)CC1` (stereo not drawn) [Compound 188, 8-bromo-2-[(4-methylpiperazin-1-yl)(phenyl)methyl][1]benzofuro[3,2-d]pyrimidin-4(3H)-one], the IC50 is below 10 µM.

In the case of `CN(C)CCNCc1nc2c(oc3ccc(Br)cc32)c(=O)[nH]1` [Compound 200, 8-bromo-2-({[2-(dimethylamino)ethyl]amino}methyl)[1]benzofuro[3,2-d]pyrimidin-4(3H)-one], the IC50 was below 10 µM.

Take `O=c1[nH]c(CN2CCC(N3CCCCC3)CC2)nc2c1oc1ccc(Br)cc12` [Compound 202, 2-(1,4′-bipiperidin-1′-ylmethyl)-8-bromo[1]benzofuro[3,2-d]pyrimidin-4(3H)-one]: the IC50 is below 10 µM.

Consider `CN1CCN(C(Cc2ccccc2)c2nc3c(oc4ccc(Br)cc43)c(=O)[nH]2)CC1` (stereo not drawn) [Compound 215, 8-bromo-2-[1-(4-methylpiperazin-1-yl)-2-phenylethyl][1]benzofuro[3,2-d]pyrimidin-4(3H)-one], for which the IC50 is below 10 µM.

For the compound `CC(C)COc1cnccc1-c1nc2c(oc3ccc(Br)cc32)c(=O)[nH]1` [Compound 219, 8-bromo-2-{3-[(2-methylpropyl)oxy]pyridin-4-yl}[1]benzofuro[3,2-d]pyrimidin-4(3H)-one], the IC50 was below 10 µM.

Consider `CN1CCN(c2ccc(CNc3nc4c(oc5ccc(Br)cc54)c(=O)[nH]3)cc2)CC1` [Compound 225, 8-bromo-2-({[4-(4-methylpiperazin-1-yl)phenyl]methyl}amino)[1]benzofuro[3,2-d]pyrimidin-4(3H)-one], for which the IC50 is below 10 µM.

As for `O=c1[nH]c(CN2CCN(c3cccc(Cl)c3)CC2)nc2c1oc1ccc(Br)cc12` [Compound 278, 8-bromo-2-{[4-(3-chlorophenyl)piperazin-1-yl]methyl}[1]benzofuro[3,2-d]pyrimidin-4(3H)-one], the IC50 is below 10 µM.

In the case of `C[C@@H]1CN(Cc2nc3c(oc4ccc(Br)cc43)c(=O)[nH]2)C[C@H](C)N1` [Compound 296, 8-bromo-2-{[(3R,5S)-3,5-dimethylpiperazin-1-yl]methyl}[1]benzofuro[3,2-d]pyrimidin-4(3H)-one], the IC50 was below 10 µM.

Turning to `O=c1[nH]c(-c2cn3c(n2)CNCC3)nc2c1oc1ccc(Br)cc12` [Compound 301, 8-Bromo-2-(5,6,7,8-tetrahydroimidazo[1,2-a]pyrazin-2-yl)[1]benzofuro[3,2-d]pyrimidin-4(3H)-one], the IC50 is below 10 µM.

As to `C[C@@H]1CN(Cc2nc3c(oc4ccc(Br)cc43)c(=O)[nH]2)C[C@H](C)N1C` [Compound 316, 8-bromo-2-{[(3R,5S)-3,4,5-trimethylpiperazin-1-yl]methyl}[1]benzofuro[3,2-d]pyrimidin-4(3H)-one], the IC50 was below 10 µM.

For `O=C(Nc1ccc(Cl)c(-c2nc3c(oc4ccc(Br)cc43)c(=O)[nH]2)c1)c1cccnc1` [Compound 327, N-[3-(8-bromo-4-oxo-3,4-dihydro[1]benzofuro[3,2-d]pyrimidin-2-yl)-4-chlorophenyl]pyridine-3-carboxamide], the IC50 was below 10 µM.

`O=C(Nc1ccc(Cl)c(-c2nc3c(oc4ccc(Br)cc43)c(=O)[nH]2)c1)c1ccc(Br)cn1` [Compound 338, 5-bromo-N-[3-(8-bromo-4-oxo-3,4-dihydro[1]benzofuro[3,2-d]pyrimidin-2-yl)-4-chlorophenyl]pyridine-2-carboxamide]: the IC50 is below 10 µM.

As to `COc1ccc(C(=O)Nc2ccc(Cl)c(-c3nc4c(oc5ccc(Br)cc54)c(=O)[nH]3)c2)cn1` [Compound 357, N-[3-(8-bromo-4-oxo-3,4-dihydro[1]benzofuro[3,2-d]pyrimidin-2-yl)-4-chlorophenyl]-6-(methyloxy)pyridine-3-carboxamide], the IC50 is below 10 µM.

For the compound `CN1CCN(Cc2nc3c(oc4ccc(F)cc43)c(=O)[nH]2)CC1` [Compound 367, 8-Fluoro-2-[(4-methylpiperazin-1-yl)methyl][1]benzofuro[3,2-d]pyrimidin-4(3H)-one], the IC50 was below 10 µM.

Take `O=c1[nH]c(C(c2ccccc2)N2CCNCC2)nc2c1oc1ccc(Br)cc12` (stereo not drawn) [Compound 384, 8-bromo-2-[phenyl(piperazin-1-yl)methyl][1]benzofuro[3,2-d]pyrimidin-4(3H)-one]: the IC50 is below 10 µM.

The record behind these values is patent publication US20090247559A1 (Exelixis, Inc., priority 2007, published 2009).
